Source: the supplement of paper PMC10307832

What was measured:
Assay in all cases: relative viability (nuclei count vs DMSO), 5 days (fraction); higher = more cells survive
Wnt-C59 + Luminespib = compound: CC1=NC=CC(=C1)C2=CC=C(C=C2)CC(=O)NC3=CC=C(C=C3)C4=CN=CC=C4 [Wnt-C59] + CCNC(=O)c1noc(-c2cc(C(C)C)c(O)cc2O)c1-c1ccc(CN2CCOCC2)cc1 [Luminespib] (partner 0.01 µM)
Method in brief: (§1)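 After 5 days of treatment, lung cancer cells in 1536-well plates were fixed and stained in a single step (final 0.05% Triton X-100, 1% formaldehyde, 1 ug/ml Hoechst) and their nuclei counted on 4× images. Treatment had been applied by pin tool the day after seeding as one drug alone or as a fixed anchor-drug dose with five library-drug doses (not always all listed) in √10 steps. Relative viability is the nuclei count of treated wells divided by that of vehicle wells, and values are medians of duplicate plates.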

Wnt-C59 + AZD7762 = compound: CC1=NC=CC(=C1)C2=CC=C(C=C2)CC(=O)NC3=CC=C(C=C3)C4=CN=CC=C4 [Wnt-C59] + NC(=O)Nc1cc(-c2cccc(F)c2)sc1C(=O)N[C@H]1CCCNC1 [AZD7762] (partner 0.2 µM)
Method in brief: as §1

Lapatinib + Foretinib = compound: CS(=O)(=O)CCNCc1ccc(-c2ccc3ncnc(Nc4ccc(OCc5cccc(F)c5)c(Cl)c4)c3c2)o1 [Lapatinib] + COc1cc2c(Oc3ccc(NC(=O)C4(C(=O)Nc5ccc(F)cc5)CC4)cc3F)ccnc2cc1OCCCN1CCOCC1 [Foretinib] (partner 0.25 µM)
Method in brief: as §1

Lapatinib + Phenformin = compound: CS(=O)(=O)CCNCc1ccc(-c2ccc3ncnc(Nc4ccc(OCc5cccc(F)c5)c(Cl)c4)c3c2)o1 [Lapatinib] + N=C(N)NC(=N)NCCc1ccccc1 [Phenformin] (partner 250 µM)
Method in brief: as §1

Cell Line | relative viability (Wnt-C59 + Luminespib; first compound 0.001 µM) | relative viability (Wnt-C59 + Luminespib; first compound 0.01 µM) | relative viability (Wnt-C59 + Luminespib; first compound 0.03162 µM) | relative viability (Wnt-C59 + Luminespib; first compound 0.1 µM) | relative viability (Wnt-C59 + AZD7762; first compound 0.001 µM) | relative viability (Wnt-C59 + AZD7762; first compound 0.01 µM) | relative viability (Wnt-C59 + AZD7762; first compound 0.03162 µM) | relative viability (Wnt-C59 + AZD7762; first compound 0.1 µM) | relative viability (Lapatinib + Foretinib; first compound 0.02 µM) | relative viability (Lapatinib + Foretinib; first compound 0.2 µM) | relative viability (Lapatinib + Foretinib; first compound 0.6325 µM) | relative viability (Lapatinib + Foretinib; first compound 2 µM) | relative viability (Lapatinib + Phenformin; first compound 0.02 µM) | relative viability (Lapatinib + Phenformin; first compound 0.06325 µM) | relative viability (Lapatinib + Phenformin; first compound 0.2 µM) | relative viability (Lapatinib + Phenformin; first compound 0.6325 µM) | relative viability (Lapatinib + Phenformin; first compound 2 µM) | relative viability (Lapatinib + Foretinib; first compound 0.06325 µM)
201T | 1.03 | 1.07 | 0.996 | 1.02 | 0.713 | 0.697 | 0.598 | 0.606 | 1.18 | 1.03 | 1.03 | 0.76 | 0.387 | 0.343 | 0.438 | 0.44 | 0.431 | 
A549 |  |  |  |  |  |  |  |  | 0.952 | 1.04 | 0.918 | 0.877 |  |  | 0.192 | 0.137 | 0.112 | 0.872
A-427 | 0.886 | 0.943 | 0.715 | 0.933 | 0.801 | 0.815 | 0.831 | 0.688 |  | 1.1 | 1.08 | 0.859 |  | 0.279 | 0.346 | 0.317 | 0.367 | 0.905
ABC-1 | 1.18 | 0.807 | 0.736 | 0.598 | 0.89 | 0.686 | 0.488 | 0.518 | 0.949 | 1.16 | 1.32 | 0.964 | 0.25 | 0.25 | 0.223 | 0.215 | 0.21 | 0.912
BEN | 0.331 | 0.423 | 0.457 | 0.598 | 0.823 | 0.623 | 0.761 | 0.856 |  | 0.653 | 0.763 | 0.554 |  | 0.301 | 0.26 | 0.241 | 0.229 | 0.667
CAL-12T | 0.397 | 0.307 | 0.592 | 0.571 | 0.595 | 0.588 | 0.505 | 0.631 |  | 1.03 | 1.02 | 0.954 |  | 0.474 | 0.5 | 0.404 | 0.337 | 1.12
COR-L23 | 0.758 | 0.667 | 0.742 | 0.617 |  |  |  |  | 0.949 | 0.918 | 0.971 | 0.891 | 0.419 | 0.421 | 0.474 | 0.455 | 0.42 | 0.872
COR-L 105 | 0.913 | 0.609 | 0.823 | 0.645 |  |  |  |  | 0.987 | 0.689 | 0.491 | 0.582 | 0.486 | 0.336 | 0.418 | 0.289 | 0.275 | 0.928
Calu-6 |  |  |  |  |  |  |  |  | 0.86 | 0.862 | 0.878 | 0.904 |  |  |  |  |  | 0.852
ChaGo-K-1 | 0.672 | 0.71 | 0.765 | 0.543 | 0.893 | 0.844 | 0.955 | 0.901 | 0.907 | 0.879 | 0.951 | 0.835 | 0.379 | 0.386 | 0.465 | 0.454 | 0.414 | 0.936
EBC-1 |  |  |  |  |  |  |  |  | 0.113 | 0.0867 | 0.108 | 0.0963 |  |  |  |  |  | 0.0941
EKVX | 0.952 | 0.824 | 0.857 | 0.704 | 0.871 |  | 0.689 | 0.651 | 0.202 | 0.822 | 0.581 | 0.201 | 0.185 | 0.218 | 0.242 | 0.235 | 0.146 | 0.738
EMC-BAC-2 | 1.18 | 1.05 | 1.06 | 1.12 | 0.941 | 0.975 | 0.897 | 0.975 | 0.953 | 0.969 | 0.86 | 0.857 | 0.422 | 0.407 | 0.532 | 0.549 | 0.499 | 0.844
EPLC-272H | 0.309 | 0.519 | 0.389 | 0.302 | 0.246 | 0.247 | 0.289 | 0.247 |  | 0.542 | 0.687 | 0.325 |  |  | 0.243 | 0.266 | 0.241 | 
H3255 | 0.94 | 0.884 | 1.04 | 0.919 | 0.927 | 0.922 | 0.953 | 0.828 | 0.405 | 0.826 | 0.862 | 0.686 | 0.37 | 0.327 | 0.314 | 0.299 | 0.224 | 0.789
HARA | 0.662 | 0.557 | 0.721 | 0.65 | 0.408 | 0.348 | 0.38 | 1.61 |  | 0.843 | 0.631 | 0.401 |  | 0.307 | 0.434 | 0.399 | 0.337 | 0.593
HCC-15 | 0.399 | 0.297 | 0.287 | 0.369 | 1.28 | 1.34 | 1.29 | 1.06 |  | 1.02 | 0.949 | 0.971 |  | 0.398 | 0.521 | 0.498 | 0.484 | 0.812
HCC-44 | 1.18 | 1.2 | 0.897 | 0.997 | 1.07 | 0.952 | 0.97 | 1.01 |  |  |  |  |  | 0.189 | 0.211 | 0.172 | 0.235 | 
HCC-78 |  |  |  |  | 0.59 | 0.653 | 0.688 | 0.624 |  | 0.446 | 0.429 | 0.401 |  | 0.631 | 0.588 | 0.856 | 0.654 | 0.427
HCC-366 |  |  |  |  | 0.271 | 0.247 | 0.286 | 0.322 |  | 0.887 | 0.912 | 0.89 |  | 0.642 | 0.633 | 0.594 | 0.559 | 0.86
HCC-827 | 0.7 | 0.693 | 0.645 | 0.698 | 0.274 | 0.27 | 0.219 | 0.175 | 1.08 | 1.05 | 0.97 | 0.155 | 0.383 | 0.398 | 0.412 | 0.414 | 0.335 | 0.974
HOP-62 | 0.945 | 0.913 | 0.969 | 0.927 | 0.403 | 0.598 | 0.769 | 0.478 | 1.14 | 1.03 | 1.09 | 1.13 | 0.499 | 0.641 | 0.635 | 0.631 | 0.695 | 1.16
